Assay results: patent US20100010219A1, “METHOD FOR PRODUCING PYRROLIDINE COMPOUND” (JAPAN TOBACCO INC., priority 2006, published 2010)
Counter-ions that a name gives are not always drawn.

Molecular target: T1, human HSD-1 (recombinant HSD-1) (Homo sapiens, UniProt P28845)
T1 construct: made in house
Test: HSD-1 activity inhibitory action in vitro (SPA, conversion of cortisone to cortisol)
Type: biochemical
Details: recombinant human HSD-1 expressed using baculovirus system; 10 nM 3H cortisone, 500 μM NADPH; room temperature 90 to 120 min; read-out: hHSD1 (IC50 (nM))

T1 sequence (P28845 whole entry): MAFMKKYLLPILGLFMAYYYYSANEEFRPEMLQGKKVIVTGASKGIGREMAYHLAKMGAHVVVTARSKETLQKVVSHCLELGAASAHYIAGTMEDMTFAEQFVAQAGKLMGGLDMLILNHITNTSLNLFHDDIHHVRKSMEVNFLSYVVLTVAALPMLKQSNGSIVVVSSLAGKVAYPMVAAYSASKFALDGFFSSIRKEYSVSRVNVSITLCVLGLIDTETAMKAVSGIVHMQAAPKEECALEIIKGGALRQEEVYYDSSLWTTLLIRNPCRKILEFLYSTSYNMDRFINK

Row | IC50 [nM] | Structure (SMILES)
1 | < 30 | NCC(=O)N1CCC(n2ncc(C(=O)N3CC[C@@H](c4ccccc4C(F)(F)F)C3)c2C2CC2)CC1 [Example 77, 1-{1-[1-(2-aminoacetyl)piperidin-4-yl]-5-cyclopropyl-1H-pyrazole-4-carbonyl}-[(S)-3-(2-trifluoromethylphenyl)]pyrrolidine hydrochloride]
2 | < 30 | O=C(c1cnn(C2CCN(C(=O)C3(CO)CC3)CC2)c1C1CC1)N1CC[C@@H](c2ccccc2C(F)(F)F)C1 [Example 78, 1-{5-cyclopropyl-1-[1-(1-hydroxymethylcyclopropanecarbonyl)piperidin-4-yl]-1H-pyrazole-4-carbonyl}-[(S)-3-(2-trifluoromethylphenyl)]pyrrolidine]
3 | < 30 | CC(C)(N)C(=O)N1CCC(n2ncc(C(=O)N3CC[C@@H](c4ccccc4C(F)(F)F)C3)c2C2CC2)CC1 [Example 79, 1-{1-[1-(2-amino-2-methylpropionyl)piperidin-4-yl]-5-cyclopropyl-1H-pyrazole-4-carbonyl}-[(S)-3-(2-trifluoromethylphenyl)]pyrrolidine hydrochloride]
4 | < 30 | O=C(CCCO)N1CCC(n2ncc(C(=O)N3CC[C@@H](c4ccccc4C(F)(F)F)C3)c2C2CC2)CC1 [Example 80, 1-{5-cyclopropyl-1-[1-(4-hydroxybutyryl)piperidin-4-yl]-1H-pyrazole-4-carbonyl}-[(S)-3-(2-trifluoromethylphenyl)]pyrrolidine]
5 | < 30 | NCCC(=O)N1CCC(n2ncc(C(=O)N3CC[C@@H](c4ccccc4C(F)(F)F)C3)c2C2CC2)CC1 [Example 83, 1-{1-[1-(3-aminopropionyl)piperidin-4-yl]-5-cyclopropyl-1H-pyrazole-4-carbonyl}-[(S)-3-(2-trifluoromethylphenyl)]pyrrolidine hydrochloride]
6 | < 30 | CC(C)[C@H](N)C(=O)N1CCC(n2ncc(C(=O)N3CC[C@@H](c4ccccc4C(F)(F)F)C3)c2C2CC2)CC1 [Example 84, 1-(1-{1-[(S)-2-amino-3-methylbutyryl]piperidin-4-yl}-5-cyclopropyl-1H-pyrazole-4-carbonyl)-[(S)-3-(2-trifluoromethylphenyl)]pyrrolidine hydrochloride]
7 | < 30 | CNCC(=O)N1CCC(n2ncc(C(=O)N3CC[C@@H](c4ccccc4C(F)(F)F)C3)c2C2CC2)CC1 [Example 85, 1-{5-cyclopropyl-1-[1-(2-methylaminoacetyl)piperidin-4-yl]-1H-pyrazole-4-carbonyl}-[(S)-3-(2-trifluoromethylphenyl)]pyrrolidine hydrochloride]
8 | < 30 | CC(C)C(=O)NCC(=O)N1CCC(n2ncc(C(=O)N3CC[C@@H](c4ccccc4C(F)(F)F)C3)c2C2CC2)CC1 [Example 87, 1-{5-cyclopropyl-1-[1-(2-isobutyrylaminoacetyl)piperidin-4-yl]-1H-pyrazole-4-carbonyl}-[(S)-3-(2-trifluoromethylphenyl)]pyrrolidine]
9 | < 30 | O=C(NCC(=O)N1CCC(n2ncc(C(=O)N3CC[C@@H](c4ccccc4C(F)(F)F)C3)c2C2CC2)CC1)C1CC1 [Example 88, 1-{1-[1-(2-cyclopropanecarbonylaminoacetyl)piperidin-4-yl]-5-cyclopropyl-1H-pyrazole-4-carbonyl}-[(S)-3-(2-trifluoromethylphenyl)]pyrrolidine]

The next lines start with the compound.

Row | Structure (SMILES) | IC50 [nM]
10 | CS(=O)(=O)NC(=O)N1CCC(n2ncc(C(=O)N3CC[C@@H](c4ccccc4C(F)(F)F)C3)c2C2CC2)CC1 [Example 56, 1-[5-cyclopropyl-1-(1-methanesulfonylaminocarbonylpiperidin-4-yl)-1H-pyrazole-4-carbonyl]-[(S)-3-(2-trifluoromethylphenyl)]pyrrolidine] | < 30
11 | COC(=O)N1CCC(n2ncc(C(=O)N3CC[C@@H](c4ccccc4C(F)(F)F)C3)c2C2CC2)CC1 [Example 57, 1-[5-cyclopropyl-1-(1-methoxycarbonylpiperidin-4-yl)-1H-pyrazole-4-carbonyl]-[(S)-3-(2-trifluoromethylphenyl)]pyrrolidine] | < 30
12 | CN(C)CCOC(=O)N1CCC(n2ncc(C(=O)N3CC[C@@H](c4ccccc4C(F)(F)F)C3)c2C2CC2)CC1 [Example 59, 1-{5-cyclopropyl-1-[1-(2-dimethylaminoethoxycarbonyl)piperidin-4-yl]-1H-pyrazole-4-carbonyl}-[(S)-3-(2-trifluoromethylphenyl)]pyrrolidine hydrochloride] | < 30
13 | O=C(OCCN1CCCCC1)N1CCC(n2ncc(C(=O)N3CC[C@@H](c4ccccc4C(F)(F)F)C3)c2C2CC2)CC1 [Example 60, 1-{5-cyclopropyl-1-[1-(2-piperidin-1-yl-ethoxycarbonyl)piperidin-4-yl]-1H-pyrazole-4-carbonyl}-[(S)-3-(2-trifluoromethylphenyl)]pyrrolidine hydrochloride] | < 30
14 | O=C(OC1CCNCC1)N1CCC(n2ncc(C(=O)N3CC[C@@H](c4ccccc4C(F)(F)F)C3)c2C2CC2)CC1 [Example 61, 1-{5-cyclopropyl-1-[1-(piperidin-4-yl-oxycarbonyl)piperidin-4-yl]-1H-pyrazole-4-carbonyl}-[(S)-3-(2-trifluoromethylphenyl)]pyrrolidine hydrochloride] | < 30
15 | CC(=O)N1CCC(OC(=O)N2CCC(n3ncc(C(=O)N4CC[C@@H](c5ccccc5C(F)(F)F)C4)c3C3CC3)CC2)CC1 [Example 63, 1-{1-[1-(1-acetylpiperidin-4-yl-oxycarbonyl)piperidin-4-yl]-5-cyclopropyl-1H-pyrazole-4-carbonyl}-[(S)-3-(2-trifluoromethylphenyl)]pyrrolidine] | < 30
16 | O=C(c1cnn(C2CCN(C(=O)C3CC3)CC2)c1C1CC1)N1CC[C@@H](c2ccccc2C(F)(F)F)C1 [Example 64, 1-[1-(1-cyclopropanecarbonylpiperidin-4-yl)-5-cyclopropyl-1H-pyrazole-4-carbonyl]-[(S)-3-(2-trifluoromethylphenyl)]pyrrolidine] | < 30
17 | O=C(CO)N1CCC(n2ncc(C(=O)N3CC[C@@H](c4ccccc4C(F)(F)F)C3)c2C2CC2)CC1 [Example 65, 1-{5-cyclopropyl-1-[1-(2-hydroxyacetyl)piperidin-4-yl]-1H-pyrazole-4-carbonyl}-[(S)-3-(2-trifluoromethylphenyl)]pyrrolidine] | < 30
18 | O=C(c1cnn(C2CCN(C(=O)C3(c4ccc(F)cc4)CC3)CC2)c1C1CC1)N1CC[C@@H](c2ccccc2C(F)(F)F)C1 [Example 66, 1-(5-cyclopropyl-1-{1-[1-(4-fluorophenyl)cyclopropanecarbonyl]piperidin-4-yl}-1H-pyrazole-4-carbonyl)-[(S)-3-(2-trifluoromethylphenyl)]pyrrolidine] | < 30
19 | CN(C)CC(=O)N1CCC(n2ncc(C(=O)N3CC[C@@H](c4ccccc4C(F)(F)F)C3)c2C2CC2)CC1 [Example 67, 1-{5-cyclopropyl-1-[1-(2-dimethylaminoacetyl)piperidin-4-yl]-1H-pyrazole-4-carbonyl}-[(S)-3-(2-trifluoromethylphenyl)]pyrrolidine hydrochloride] | < 30
20 | CC(=O)NCC(=O)N1CCC(n2ncc(C(=O)N3CC[C@@H](c4ccccc4C(F)(F)F)C3)c2C2CC2)CC1 [Example 68, 1-{1-[1-(2-acetylaminoacetyl)piperidin-4-yl]-5-cyclopropyl-1H-pyrazole-4-carbonyl}-[(S)-3-(2-trifluoromethylphenyl)]pyrrolidine] | < 30
21 | CC1(C(=O)N2CCC(n3ncc(C(=O)N4CC[C@@H](c5ccccc5C(F)(F)F)C4)c3C3CC3)CC2)CC1 [Example 69, 1-{5-cyclopropyl-1-[1-(1-methylcyclopropanecarbonyl)piperidin-4-yl]-1H-pyrazole-4-carbonyl}-[(S)-3-(2-trifluoromethylphenyl)]pyrrolidine] | < 30
22 | CC(=O)N[C@@H](C)C(=O)N1CCC(n2ncc(C(=O)N3CC[C@@H](c4ccccc4C(F)(F)F)C3)c2C2CC2)CC1 [Example 71, 1-(1-{1-[(S)-2-acetylaminopropionyl]piperidin-4-yl}-5-cyclopropyl-1H-pyrazole-4-carbonyl)-[(S)-3-(2-trifluoromethylphenyl)]pyrrolidine] | < 30
23 | CC(=O)N[C@H](C(=O)N1CCC(n2ncc(C(=O)N3CC[C@@H](c4ccccc4C(F)(F)F)C3)c2C2CC2)CC1)C(C)C [Example 72, 1-(1-{1-[(S)-2-acetylamino-3-methylbutyryl]piperidin-4-yl}-5-cyclopropyl-1H-pyrazole-4-carbonyl)-[(S)-3-(2-trifluoromethylphenyl)]pyrrolidine] | < 30
24 | O=C(CC(F)(F)F)N1CCC(n2ncc(C(=O)N3CC[C@@H](c4ccccc4C(F)(F)F)C3)c2C2CC2)CC1 [Example 73, 1-{5-cyclopropyl-1-[1-(3,3,3-trifluoropropionyl)piperidin-4-yl]-1H-pyrazole-4-carbonyl}-[(S)-3-(2-trifluoromethylphenyl)]pyrrolidine] | < 30
25 | O=C1CC[C@@H](C(=O)N2CCC(n3ncc(C(=O)N4CC[C@@H](c5ccccc5C(F)(F)F)C4)c3C3CC3)CC2)N1 [Example 74, 1-(5-cyclopropyl-1-{1-[(S)-5-oxopyrrolidine-2-carbonyl]piperidin-4-yl}-1H-pyrazole-4-carbonyl)-[(S)-3-(2-trifluoromethylphenyl)]pyrrolidine] | < 30
26 | CC(=O)NCCC(=O)N1CCC(n2ncc(C(=O)N3CC[C@@H](c4ccccc4C(F)(F)F)C3)c2C2CC2)CC1 [Example 75, 1-{1-[1-(3-acetylaminopropionyl)piperidin-4-yl]-5-cyclopropyl-1H-pyrazole-4-carbonyl}-[(S)-3-(2-trifluoromethylphenyl)]pyrrolidine] | < 30
27 | CC(C)(CO)C(=O)N1CCC(n2ncc(C(=O)N3CC[C@@H](c4ccccc4C(F)(F)F)C3)c2C2CC2)CC1 [Example 76, 1-{5-cyclopropyl-1-[1-(3-hydroxy-2,2-dimethylpropionyl)piperidin-4-yl]-1H-pyrazole-4-carbonyl}-[(S)-3-(2-trifluoromethylphenyl)]pyrrolidine] | < 30
